Literature values in the CATMoS acute toxicity set (Mansouri et al. 2021).

Experiment: rat acute oral toxicity
Conditions: in vivo

| SMILES | LD50 [mg/kg] |
| --- | --- |
| COCCOC(=O)C1=C(C)NC(C)=C(C(=O)OC/C=C/c2ccccc2)C1c1cccc([N+](=O)[O-])c1 (centres undefined) | 4410 |
| C[C@H](CCC(=O)O)[C@H]1CC[C@H]2[C@@H]3[C@@H](O)C[C@@H]4C[C@H](O)CC[C@]4(C)[C@H]3CC[C@]12C | 4600 |
| CCOP(=S)(OCC)SC1CCC2C=CCC1S2 (centres undefined) | 140 |
| CCOP(=S)(Oc1ccc(C#N)cc1)c1ccccc1 (centres undefined) | 28.5 |
| FC(F)(F)c1nc2c(Cl)c(Cl)ccc2[nH]1 | 13.1 |
| O=C(O)C1=Cc2sc(Cn3ccnc3)cc2CC1 | 1880 |
| CCCCCCCCCCCCCCCCOCCOCCOCCOCCOCCOCCOCCOCCOCCOCCOCCOCCOCCOCCOCCOCCOCCOCCOCCOCCO | 2500 |
| CN1[C@@H]2CCC[C@H]1C[C@@H](NC(=O)c1nn(C)c3ccccc13)C2 | 350 |
| COC(=O)C=Cc1ccccc1 | 2610 |
| CN1C(=CC=CC2=[N+](C)c3ccccc3C2(C)C)C(C)(C)c2ccccc21 | 18 |
| Cc1ccc(N)nc1 | 200 |
| CCCCC(CC)OCCOCCO (centres undefined) | 2940 |
| CC(=O)C(Cl)C(=O)OC(C)c1ccccc1 (centres undefined) | 880 |
| NC1CCC(CC2CCC(N)CC2)CC1 (centres undefined) | 1750 |
| CCCC1C(=O)N(c2ccccc2)N(c2ccccc2)C1=O | 529 |
| CN(C)C(=O)Oc1cccc([N+](C)(C)C)c1 | 51 |
| OC(CCN1CCCCC1)(c1ccccc1)C1CCCCC1 (centres undefined) | 1630 |
| CCOP(=O)(OCC)Oc1cc(C)oc(=O)c1 | 3.34 |
| O=[N+]([O-])c1ccc(F)cc1F | 200 |
| C=CN(CC)N=O | 88 |
| CCOC(=O)c1c[nH]c2cc(OCC3CC3)c(OCC3CC3)cc2c1=O | 3000 |
| CC(C)CCO | 1300 |
| CC(Cc1ccccc1)NCCCCl (centres undefined) | 410 |
| O=C(OC1CCC(N2CCCCC2)CC1)C1CCCCC1 (centres undefined) | 2500 |
| CCC1=CSC(S)N1 (centres undefined) | 35 |
| O=[N+]([O-])c1c(Cl)cc(Cl)c([N+](=O)[O-])c1Cl | 500 |
| Cc1nc(Cn2cnc3c2c(=O)n(C)c(=O)n3C)no1 | 1550 |

| SMILES | LD50 [mg/kg] |
| --- | --- |
| CC(C)=CC1C(C(=O)OC(C#N)c2cccc(Oc3ccccc3)c2)C1(C)C (centres undefined) | 318 |
| COCCCOCC(C)OCCCOC(=O)c1ccccc1 (centres undefined) | 5480 |
| N#CC1CCCCC1 | 80 |
| ClCC(Cl)(Cl)Cl | 670 |
| OC(CCl)CCl | 110 |
| CCOc1ccccc1OCC(O)CNCCNCC(O)COc1ccccc1OCC (centres undefined) | 560 |
| CCCN1CCCC1=Nc1ccc(Cl)c(Cl)c1 | 2120 |
| CCCNNc1ccccc1 | 13 |
| NC(=O)c1ccc2nc(C(F)(F)F)[nH]c2c1 | 31.6 |
| CCN(CC)Cc1cc(-c2ccccc2)ccc1O | 28 |
| CCOP(=S)(OCC)SCn1nc(-c2ccccc2)ccc1=O | 555 |
| CC=Cc1ccc(OP(=S)(OC)OC)c(OC)c1 | 250 |
| CC(Br)C=CCl (centres undefined) | 74 |
| Cl[C@H]1[C@H](Cl)[C@@H](Cl)[C@H](Cl)[C@@H](Cl)[C@@H]1Cl (racemic) | 6000 |
| CCOC(=O)[C@H](CCc1ccccc1)N[C@@H](C)C(=O)N1Cc2ccccc2C[C@H]1C(=O)O | 3540 |
| ClCC(Cl)(Cl)C(Cl)Cl | 819 |
| CCCSP(=O)(OCC)Oc1ccc(Sc2ccc(Cl)cc2)cc1 (centres undefined) | 690 |
| COC(=O)Nc1cccc(OC(=O)Nc2cccc(C)c2)c1 | 4000 |
| CCC(O)(c1ccccc1)c1cccc(C(F)(F)F)c1 (centres undefined) | 2240 |
| O=C[C@H](O)[C@@H](O)[C@H](O)[C@H](O)CO | 25800 |
| CCOC(=O)C(C(=O)Cc1c(C)n(C(=O)c2ccc(Cl)cc2)c2ccc(OC)cc12)C(=O)OCC | 520 |
| CN(C)C(=O)C(CC[N@+]1([O-])CC[C@@](O)(c2ccc(Cl)cc2)CC1)(c1ccccc1)c1ccccc1 | 172 |
| CC(C)=CCC(CCN(C)C)(C(N)=O)c1cccc2ccccc12 (centres undefined) | 143 |
| COP(=S)(OC)Oc1ccc(SC)c(C)c1 | 180 |
| CCO[Si](C)(CCCCN)OCC | 6500 |
| CCN(CC)CCN(CCN(CC)CC)n1cc(-c2ccc(Cl)cc2)c2cc(Cl)ccc21 | 780 |
| Cc1c2ccccc2c(C)c2c1ccc1ccccc12 | 327 |
